Test results reported in patent US20160000787A1, “INHIBITORS OF CDK8/19 FOR USE IN TREATING ESTROGEN RECEPTOR POSITIVE BREAST CANCER” (SENEX BIOTECHNOLOGY, INC., priority 2013, published 2016).

Assays:
Assay type in all cases: cell-based
BT474 cells [1] = assay: Growth inhibition, 6-day treatment, Coulter counter; conditions: 6 days
From the text: (§1) Both MCF7-1pE and MCF7-Veh are resistant to tamoxifen and MCF7-Veh is also resistant to fulvestrant.

MCF7 cells [2] = assay: as above; conditions: 6 days
From the text: as §1

MCF7-1pE cells [3] = assay: as above; conditions: 6 days
From the text: as §1

MCF7-Veh cells [4] = assay: as above; conditions: 6 days
From the text: as §1

T47D cells [5] = assay: as above; conditions: 6 days
From the text: as §1

[6] = test system: estrogen-depleted MCF7 cells; assay: Estrogen (E2) mitogenic stimulation assay, flow cytometric cell counting; conditions: for decrease of cell number: 4 days after E2 addition, fulvestrant 1 nM and/or Senexin A 1 μM; for effect on E2-stimulated cell growth: 10 nM E2
Experimental: To test the effect of CDK8/19 inhibition on the mitogenic effect of estrogen in estrogen-responsive BrCa cells, MCF7 cells (ER+BrCa line) were placed into estrogen-depleted phenol red-free media with 10% charcoal-stripped serum. Under these conditions cells are largely but not completely estrogen-depleted (full depletion would require adapting the cells to low serum, since the cells can synthesize estrogen from serum components). Cells were then plated in the presence or absence of Senexin A (at 1 μM and 5 μM concentrations), and either 10 nM of the estrogen 17-β-estradiol (E2) or vehicle control were added on the following day. Cell growth was measured by flow cytometric counting of live (PI-negative) and dead (PI-positive) cells over 4 days.
The interaction between Senexin A and fulvestrant in MCF7 cells was investigated in the estrogen (E2) mitogenic stimulation assay, carried out as described in example 1, with the cell number measured by flow cytometry 4 days after E2 addition.

BT474 cells [7] = assay: Time course of cell growth over 7 days, Coulter counter; conditions: different concentrations
From the text: (§2) Senexin A alone inhibited cell growth, with the strongest effects observed in the estrogen-dependent lines T47D and parental MCF7 and the weakest effects in cell lines that are fully or partially estrogen-independent (MCF7-Veh, MCF7-1p).

MCF7 cells [8] = assay: as above; conditions: different concentrations
From the text: as §2

T47D cells [9] = assay: as above; conditions: different concentrations
From the text: as §2

MCF7-1pE cells [10] = assay: Long-term (11-day) drug treatment, crystal violet staining
MCF7-Veh cells [11] = assay: as above
[12] = test system: CXCL12 expression in estrogen-depleted MCF7 cells; assay: QPCR analysis of estrogen-inducible gene expression; conditions: two concentrations of Senexin A, with or without E2
From the text: (§3) Rae et al., (2005) used microarray profiling to analyze the effects of E2 and ER antagonists on gene expression in three ER+BrCa cell lines, MCF7, T47D and BT-474. […] The cytokine CXCL12 was also shown to mediate the mitogenic effect of E2 (Sauve et al., 2009) and, together with its receptor CXCR4, to be a key determinant of metastasis in cancers of the breast and other organs (Muller et al., 2001; Rhodes et al., 2011). […] The effect of Senexin A on CXCL12, a known mediator of metastasis, is of particular interest as a possible cause of the association of CDK8 expression with shorter RFS.

[13] = test system: GREB1 expression in estrogen-depleted MCF7 cells; assay: as above; conditions: two concentrations of Senexin A, with or without E2
From the text: as §3

[14] = test system: TFF1 expression in estrogen-depleted MCF7 cells; assay: as above; conditions: two concentrations of Senexin A, with or without E2
From the text: as §3

[15] = test system: ER-dependent ERE-containing promoter in T47D-ER/Luc cells; assay: ER-dependent ERE promoter luciferase reporter assay; conditions: different concentrations; 10 nM E2 added 1 h later; read 18 hrs later
Experimental: To determine whether the effect of CDK8 on ER-inducible gene expression is mediated through inhibition of the transcriptional effect of ER, which is exerted through ER binding to the ERE promoter element, a T47D-based reporter cell line was used. The cell line T47D-ER/Luc (obtained from Signosis) expresses firefly luciferase from the ER-dependent ERE-containing promoter. The reporter cell line was estrogen-depleted, then Senexin A was added at different concentrations, and one hour later 10 nM E2 was added. 18 hrs later, cells were counted and luciferase activity was measured.

[16] = Homo sapiens, 144 h, FUL 1 nM, alone or with SenA 5 μM, read-out: % growth inhibition relative to control
[17] = Homo sapiens, 144 h, FUL 10 nM, alone or with SenA 5 μM, read-out: % growth inhibition relative to control
[18] = 144 h, FUL 1 nM, alone or with SenA 5 μM, read-out: % growth inhibition relative to control
[19] = 144 h, FUL 10 nM, alone or with SenA 5 μM, read-out: % growth inhibition relative to control
[20] = Homo sapiens, 144 h, TAM 1 μM, alone or with SenA 5 μM, read-out: % growth inhibition relative to control
[21] = Homo sapiens, 144 h, TAM 5 μM, alone or with SenA 5 μM, read-out: % growth inhibition relative to control
[22] = 144 h, TAM 1 μM, alone or with SenA 5 μM, read-out: % growth inhibition relative to control
[23] = 144 h, TAM 5 μM, alone or with SenA 5 μM, read-out: % growth inhibition relative to control

Work on `C[C@]12CC[C@@H]3c4ccc(O)cc4C[C@@H](CCCCCCCCC[S+]([O-])CCCC(F)(F)C(F)(F)F)[C@H]3[C@@H]1CC[C@@H]2O` (stereo partly shown) [FUL, fulvestrant] yielded an inhibition at 0.001 µM (BT474 cells [1]; Homo sapiens, BT-474, 144 h, FUL 1 nM, alone or with SenA 5 μM, read-out: % growth inhibition relative to control) of 17.7%, an inhibition at 0.01 µM (BT474 cells [1]; Homo sapiens, BT-474, 144 h, FUL 10 nM, alone or with SenA 5 μM, read-out: % growth inhibition relative to control) of 22.6% and an inhibition at 0.001 µM (MCF7 cells [2]; [16]) of 62%. For the same compound, the inhibition at 0.01 µM (MCF7 cells [2]; [17]) was 63.6%, the inhibition at 0.001 µM (MCF7-1pE cells [3]; [18]) was 49.7% and the inhibition at 0.01 µM (MCF7-1pE cells [3]; [19]) was 57.2%. It also gave an inhibition at 0.001 µM (MCF7-Veh cells [4]; [18]) of 12.4%, an inhibition at 0.01 µM (MCF7-Veh cells [4]; [19]) of 28% and an inhibition at 0.001 µM (T47D cells [5]; [16]) of 56.5%. For the same compound, the inhibition at 0.01 µM (T47D cells [5]; [17]) was 58.2% and the “decrease of cell number” value [6] was 27%.
For `N#Cc1ccc2ncnc(NCCc3ccccc3)c2c1` [Senexin A], the “% growth inhibition relative to control” value (BT474 cells [1]; SenA 5 μM) was 23.9%, the “% growth inhibition relative to control” value (MCF7 cells [2]; SenA 5 μM) was 37% and the “% growth inhibition relative to control” value (MCF7-1pE cells [3]; SenA 5 μM) was 19.1%. The “% growth inhibition relative to control” value (MCF7-Veh cells [4]; SenA 5 μM) was 15.5%, the “% growth inhibition relative to control” value (T47D cells [5]; SenA 5 μM) was 48% and the “effect on E2-stimulated cell growth” value ([6]; 1 μM Senexin A, over 4 days) was “partial effect”. For the same compound, the “effect on E2-stimulated cell growth” value ([6]; 5 μM Senexin A, over 4 days) was “abolished”, the “effect on cell growth without E2 addition” value ([6]; 5 μM Senexin A, no E2, over 4 days) was “inhibited cell growth without E2 addition but to a lesser extent” and the “decrease of cell number” value [6] was 5%. For the same compound, the “nature of effect / induction of cell death (PI-positive cells)” value ([6]; Senexin A 1 μM and 5 μM, over 4 days) was “cytostatic and were not associated with any significant induction of cell death”, the “growth inhibition, time course” value (BT474 cells [7]) was “concentration-dependent growth inhibition” and the “growth inhibition, time course” value (MCF7 cells [8]) was “concentration-dependent growth inhibition”. For the same compound, the “growth inhibition, time course” value (T47D cells [9]) was “concentration-dependent growth inhibition”, the “potentiation of fulvestrant effects” value (MCF7-1pE cells [10]) was “especially apparent” and the “potentiation of fulvestrant effects” value (MCF7-Veh cells [11]) was “especially apparent”. For the same compound, the “CXCL12 expression (QPCR)” value [12] was “inhibited”, the “GREB1 expression (QPCR)” value [13] was “inhibited” and the “TFF1 expression (QPCR)” value [14] was “inhibited”. For the same compound, the “transcription from ER-dependent promoter (luciferase activity)” value [15] was “strongly inhibited”.
For `CN1CCN(C(=O)c2ccc3cc(CCNc4ncnc5ccc(C#N)cc45)ccc3c2)CC1` [Senexin B], the “growth inhibition, time course” value (BT474 cells [7]) was “concentration-dependent growth inhibition”, the “growth inhibition, time course” value (MCF7 cells [8]) was “concentration-dependent growth inhibition” and the “growth inhibition, time course” value (T47D cells [9]) was “concentration-dependent growth inhibition”.
`CC/C(=C(\c1ccc(O)cc1)c1ccc(OCCN(C)C)cc1)c1ccccc1` [TAM, 4-OH tamoxifen] gave an inhibition at 1 µM (BT474 cells [1]; Homo sapiens, BT-474, 144 h, TAM 1 μM, alone or with SenA 5 μM, read-out: % growth inhibition relative to control) of 28.8%, an inhibition at 5 µM (BT474 cells [1]; Homo sapiens, BT-474, 144 h, TAM 5 μM, alone or with SenA 5 μM, read-out: % growth inhibition relative to control) of 42.3% and an inhibition at 1 µM (MCF7 cells [2]; [20]) of 34.8%. For the same compound, the inhibition at 5 µM (MCF7 cells [2]; [21]) was 50.7%, the inhibition at 1 µM (MCF7-1pE cells [3]; [22]) was -1.3% and the inhibition at 5 µM (MCF7-1pE cells [3]; [23]) was 1.5%. It also gave an inhibition at 1 µM (MCF7-Veh cells [4]; [22]) of 2.6%, an inhibition at 5 µM (MCF7-Veh cells [4]; [23]) of 1% and an inhibition at 1 µM (T47D cells [5]; [20]) of 54.6%. For the same compound, the inhibition at 5 µM (T47D cells [5]; [21]) was 62.3%.
